US9274101B2 (BIOLOG, Inc., priority 2001, dated 2016)
Entries after “also recorded” stand apart in the source; their conditions may differ. Where a SMILES comes first, the peptide text is derived from it.

Tests used:
[1] = tested on: ten strains of E. coli; format: cell-based, Escherichia coli
[2] = tested on: HepG2 cells; test: HepG2 cells cultured on CYTODEX 3 microcarriers, energy sources; format: cell-based, human; settings: Homo sapiens, HepG2, 68 h, read-out: Responses of HepG2 Cells Cultured on Microcarriers After 68 hours in Culture and a 4 hour Color Development Period; for activity at 30 µM: Conc. 0.03 mM; for activity at 100 µM: Conc. 0.10 mM; for activity at 330 µM: Conc. 0.33 mM; for activity at 1000 µM: Conc. 1.00 mM; for activity at 3300 µM: Conc. 3.3 mM; for activity at 10000 µM: Conc. 10 mM; for activity at 15000 µM: Conc. 15 mM; for activity at 20000 µM: Conc. 20 mM
Description: In this Example, methods for testing adherent cells cultured in suspension, for their ability to use multiple carbon sources are described. HepG2 cells were cultured as described in Example 30.
HepG2 cells were harvested by trypsinization for 3 minutes in 0.25% trypsin-1 mM EDTA and resuspended in an equal volume of culture medium. A viable cell count was obtained by trypan blue exclusion and the appropriate volume of the cell suspension to have 2.7×10^6 cells/0.1 gm CYTODEX 3 (Sigma C3275) microcarrier beads was determined. Microcarrier beads had been previously prepared by 1) rehydration in calcium-magnesium free (CMF) DPBS for 3 hours, 2) autoclaving for 15 minutes, and 3) washing twice in MEM without serum. The cell suspension was added to the beads in a 50 mL tube, and the volume adjusted to 5 mL. Cells were allowed to attach for 1 hour in an atmosphere of 5% CO2, 90-100% humidity, and 37° C., with resuspension every 15 minutes. The microcarriers were transferred to a 100×15 mm Petri dish in a total volume of 20 mL. Cultures were maintained as stationary cultures until used for assay.
The thixotropic suspending agent, methylcellulose (1500 cps, Sigma M0555), was included in the medium to keep the microcarriers suspended so that they could be accurately pipetted. The methylcellulose was prepared by autoclaving in 20 mL tissue culture water for 30 minutes, then mixing by shaking for 1 hour. The initial concentration of methylcellulose was […]. The methylcellulose was then diluted 1:1 in 2× DME with or without glucose, then supplemented with 10% HI FBS; this yields a methylcellulose concentration of 1.36%. Beads were transferred to a 50 mL tube, allowed to settle and resuspended in DPBS. The washed beads were then resuspended in DME with 10% HI FBS and penicillin-streptomycin but without glucose, L-glutamine, sodium pyruvate, or phenol red. An equal volume of 1.36% methylcellulose was added and mixed by pipetting.
For the assay, 70 μL of DME with 10% HI FBS and penicillin-streptomycin but without glucose, L-glutamine, sodium pyruvate, or phenol red were added to each well, followed by 30 μL of the appropriate dilution of each test energy source. Stocks of 133 mM of each test chemical were prepared in tissue culture grade water, sterile filtered, and dilutions were prepared in a master plate so that, upon dilution into a regular 96-well MICROPLATE a total well volume of 200 μL, the final concentrations would be 0.033 to 20 mM. Negative control wells received 30 μL of tissue culture grade water. One hundred μL of beads were pipetted into each well. For each plate containing energy sources and cells, a second, control plate containing only energy sources was prepared. Plates were incubated at 5% CO2, 90-100% humidity, and 37° C. for 68 hours prior to addition of the MTS/MPMS colorometric reagent (10 μL/well). The color formed in each well 4-8 hours after addition of the colorimetric reagent, was measured with a plate reader at 490 nm with a reference wavelength of 650 nm. OD values from the control plate were subtracted from the OD values obtained with cells prior to normalizing the data to % negative control (cells without added energy source).

Compound	carbon source utilization [1]	further results
OC[C@H]1O[C@@H](O[C@@H]2[C@@H](CO)OC(O)(CO)[C@H]2O)[C@H](O)[C@@H](O)[C@H]1O (mixture of isomers) [Lactulose]	+ and −	
O=C(O)CC(O)C(=O)O (racemic) [D,L-malic acid]	+	
CC(O)CO (stereo not drawn) [1,2-propanediol]	−	
CC(=O)O [Acetic acid]	+	
OC[C@@H](O)[C@@H](O)[C@@H](O)CO [Adonitol]	−	
O=C(O)CC(Br)C(=O)O (stereo not drawn) [Bromo succinic acid]	+	
O=C[C@H](O)[C@@H](O)[C@H](O[C@@H]1O[C@H](CO)[C@@H](O)[C@H](O)[C@H]1O)[C@H](O)CO [Cellobiose]	−	
O=C(CO)[C@@H](O)[C@H](O)[C@H](O)CO [D-fructose]	+	
O=C[C@H](O)[C@@H](O)[C@@H](O)[C@H](O)CO [D-galactose]	+	
O=C(O)[C@H](O)[C@@H](O)[C@H](O)[C@H](O)CO [D-gluconic acid]	+	
N[C@@H](C(=O)O)[C@@H](O)[C@H](O)[C@H](O)CO [D-glucosaminic acid]	−	
O=C[C@H](O)[C@@H](O)[C@H](O)[C@H](O)C(=O)O [D-glucuronic acid]	+	
O=C(O)C[C@@H](O)C(=O)O [D-malic acid]	+	
OC[C@@H](O)[C@@H](O)[C@H](O)[C@H](O)CO [D-mannitol]	+	
OC[C@H]1O[C@H](OCC2O[C@@H](O)[C@H](O)[C@@H](O)[C@@H]2O)[C@H](O)[C@@H](O)[C@H]1O (stereo partly drawn) [D-melibiose]	+	
O=C[C@H](O)[C@H](O)[C@H](O)CO [D-ribose]	+	
O=C(O)[C@@H](O)[C@@H](O)[C@H](O)[C@@H](O)C(=O)O [D-saccharic acid]	− and +	carbon source utilization (text) [1]: negative
OC[C@@H](O)[C@@H](O)[C@H](O)[C@@H](O)CO [D-sorbitol]	− and +	carbon source utilization (text) [1]: sorbitol negative
C[C@H](O)[C@@H](N)C(=O)O [D-threonine]	−	
OC[C@H]1O[C@H](O[C@H]2O[C@H](CO)[C@@H](O)[C@H](O)[C@H]2O)[C@H](O)[C@@H](O)[C@@H]1O [D-trehalose]	+	
O=C[C@H](O)[C@@H](O)[C@H](O)CO [D-xylose]	+ and −	carbon source utilization (text) [1]: xylose-positive; also recorded: xylose-negative
OC[C@@H](O)[C@H](O)[C@H](O)[C@@H](O)CO [Dulcitol]	− and +	
O=CO [Formic acid]	− and +	
O=C(O)/C=C/C(=O)O [Fumaric acid]	+	
OCC(O)CO [Glycerol]	+ and −	
O=C(O)CO [Glycolic acid]	− and +	carbon source utilization (text) [1]: negative

Compound	carbon source utilization [1]	further results
NCC(=O)N[C@@H](CC(=O)O)C(=O)O [Glycyl-L-aspartic acid] (H-Gly-Asp-OH)	+	
NCC(=O)N1CCC[C@H]1C(=O)O [Glycyl-L-proline] (H-Gly-Pro-OH)	+	
O=CC(=O)O [Glyoxylic acid]	− and +	
O=C[C@H](O)[C@@H](O)[C@@H](O)CO [L-arabinose]	+	
C[C@H](O)[C@@H](O)[C@@H](O)[C@H](O)C=O [L-fucose]	+	
C[C@H](O)C(=O)O [L-lactic acid]	+	
O=C[C@H](O)[C@H](O)[C@@H](O)CO [L-lyxose]	− and +	
O=C(O)C[C@H](O)C(=O)O [L-malic acid]	+	
C[C@H](O)[C@H](O)[C@@H](O)[C@@H](O)C=O [L-rhamnose]	+	
O=C(O)Cc1cccc(O)c1 [M-hydroxyphenylacetic acid]	−	
OC[C@H]1O[C@H](O[C@H]2[C@H](O)[C@@H](O)[C@H](O)O[C@@H]2CO)[C@H](O)[C@@H](O)[C@@H]1O [Maltose]	+ and −	carbon source utilization (text) [1]: negative
O=C(O)[C@@H](O)[C@H](O)[C@H](O)[C@@H](O)C(=O)O [Mucic acid]	+	
O=C(O)Cc1ccc(O)cc1 [P-hydroxy phenylacetic acid]	−	
CCC(=O)O [Propionic acid]	+ and −	carbon source utilization (text) [1]: negative
O=C(O)CCC(=O)O [Succinic acid]	+	
O=C(O)CC(CC(=O)O)C(=O)O [Tricarballylic acid]	−	
O=C(CO)[C@@H](O)[C@H](O)[C@H](O)CO [fructose]		activity at 30 µM [2]: 97.1%; activity at 100 µM [2]: 108%; activity at 330 µM [2]: 123%; activity at 1000 µM [2]: 115%; activity at 3300 µM [2]: 107%; activity at 10000 µM [2]: 94.4%; activity at 15000 µM [2]: 72.1%; activity at 20000 µM [2]: 50.3%
O=C[C@H](O)[C@@H](O)[C@@H](O)[C@H](O)CO [galactose]		activity at 30 µM [2]: 97.1%; activity at 100 µM [2]: 111%; activity at 330 µM [2]: 121%; activity at 1000 µM [2]: 109%; activity at 3300 µM [2]: 117%; activity at 10000 µM [2]: 94.4%; activity at 15000 µM [2]: 81%; activity at 20000 µM [2]: 65.6%
CCC(O)C(=O)O (stereo not drawn) [α-hydroxy butyric acid]	+ and −	carbon source utilization (text) [1]: negative
CCC(=O)C(=O)O [α-ketobutyric acid]	− and +	carbon source utilization (text) [1]: negative
O=C(O)CCC(=O)C(=O)O [α-ketoglutaric acid]	+ and −	
CO[C@H]1O[C@H](CO)[C@H](O)[C@H](O)[C@H]1O [α-methyl galactoside]	+	
COC1OC(CO)C(O)C(O)C1O (stereo not drawn) [β-methyl glucoside]	+	
Maltotriose	+ and −	carbon source utilization (text) [1]: negative
Tween-20	−	
Tween-80	− and +	
